# Measured values from PMC8673480 (Journal of medicinal chemistry, 2021).
# Assays:
# SARS-CoV-2 3CLpro = SARS-CoV-2 3CLpro (Severe acute respiratory syndrome coronavirus 2, UniProt P0DTD1); test: biochemical; format: biochemical
# MERS-CoV 3CLpro = MERS-CoV 3CLpro (Middle East respiratory syndrome-related coronavirus, UniProt K9N7C7); test: biochemical
# [1] = Nonspecific cytotoxic effects / in vitro cytotoxicity; format: cell-based; settings: human, HEK293T cells
# PRRSV = test: Inhibition of replication of PRRSV; format: cell-based, porcine respiratory and reproductive syndrome virus (PRRSV)
# Chain of MERS-CoV 3CLpro (K9N7C7 3248-3553 limits assumed): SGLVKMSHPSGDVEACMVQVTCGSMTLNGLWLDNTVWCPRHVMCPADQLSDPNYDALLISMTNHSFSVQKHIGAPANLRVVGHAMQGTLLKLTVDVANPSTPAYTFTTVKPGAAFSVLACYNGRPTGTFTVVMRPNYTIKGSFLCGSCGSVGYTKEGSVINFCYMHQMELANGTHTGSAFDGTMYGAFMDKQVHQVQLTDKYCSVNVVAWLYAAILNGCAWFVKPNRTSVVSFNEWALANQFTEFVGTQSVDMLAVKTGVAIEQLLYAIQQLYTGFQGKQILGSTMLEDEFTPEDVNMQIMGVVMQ
smiles,measurement,setting,value
"CCCC1CCC(COC(=O)NC(CC(C)C)C(=O)NC(C=O)CC2CCNC2=O)CC1 [Compound 8b, ((1r,4R)-4-Propylcyclohexyl) methyl ((2S)-4-methyl-1-oxo-1-(((2S)-1-oxo-3-(2-oxopyrrolidin-3-yl)propan-2-yl)amino)pentan-2-yl) carbamate]",IC50,SARS-CoV-2 3CLpro,200 ± 30 nM
same,IC50,MERS-CoV 3CLpro,60 ± 10 nM
same,CC50 at 72 h,[1],43000 ± 9000 nM
"CC(C)C[C@H](NC(=O)OC(C)(C)C1CCC(F)(F)CC1)C(=O)N[C@@H](C[C@@H]1CCNC1=O)C(O)S(=O)(=O)[O-].[Na+] (stereo partly drawn) [Compound 13c, Sodium (2S)-2-((S)-2-((((2-(4,4-difluorocyclohexyl)propan-2-yl)oxy)carbonyl)amino)-4-methylpentanamido)-1-hydroxy-3-((S)-2-oxopyrrolidin-3-yl)propane-1-sulfonate]",IC50 higher than those of 12b and 14c,SARS-CoV-2 3CLpro,~ 4 fold
CC(C)C[C@H](NC(=O)OCc1ccccc1)C(=O)N[C@@H](C[C@@H]1CCNC1=O)C(O)S(=O)(=O)[O-].[Na+] (some centres unmarked) [GC376],inhibition of the replication of PRRSV,PRRSV,none of them resulted in the reduction of viral replication
